In ChEMBL document CHEMBL1201862, “PubChem BioAssay data set” (2004):
Structures can show the parent of a compound that is named as a salt. Activity calls are given as the source filed them.

Legend:
Escherichia coli = experiment: microbe, parasite or virus in culture
[1] = target: T1, Peroxisome proliferator-activated receptor gamma/Nuclear receptor coactivator 3 (Homo sapiens, UniProt P37231); experiment: (§1) TR-FRET dose response biochemical High Throughput Screening assay for agonists of the steroid receptor coactivator 3 (SRC-3) recruitment by the peroxisome proliferator-activated receptor gamma (PPAR gamma): non-selective agonists. [Related pubchem assays: 1301 (Confirmation screen.), 1048 (Primary screen.)]; type: functional
T1 sequence (P37231 whole entry): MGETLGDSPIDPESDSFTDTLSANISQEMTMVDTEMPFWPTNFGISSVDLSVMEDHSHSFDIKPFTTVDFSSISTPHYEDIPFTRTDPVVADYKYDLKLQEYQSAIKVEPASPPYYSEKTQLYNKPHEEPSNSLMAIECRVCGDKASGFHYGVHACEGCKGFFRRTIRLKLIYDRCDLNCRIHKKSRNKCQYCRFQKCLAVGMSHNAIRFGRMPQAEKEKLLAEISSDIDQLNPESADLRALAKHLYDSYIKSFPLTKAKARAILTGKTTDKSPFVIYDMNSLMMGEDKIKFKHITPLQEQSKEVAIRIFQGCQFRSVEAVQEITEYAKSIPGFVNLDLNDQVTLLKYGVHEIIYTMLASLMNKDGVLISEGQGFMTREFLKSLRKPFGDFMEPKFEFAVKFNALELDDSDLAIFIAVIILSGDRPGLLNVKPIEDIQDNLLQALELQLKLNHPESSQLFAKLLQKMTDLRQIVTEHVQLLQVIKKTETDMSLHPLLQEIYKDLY
T1 sequence (Q9Y6Q9 whole entry, further chain): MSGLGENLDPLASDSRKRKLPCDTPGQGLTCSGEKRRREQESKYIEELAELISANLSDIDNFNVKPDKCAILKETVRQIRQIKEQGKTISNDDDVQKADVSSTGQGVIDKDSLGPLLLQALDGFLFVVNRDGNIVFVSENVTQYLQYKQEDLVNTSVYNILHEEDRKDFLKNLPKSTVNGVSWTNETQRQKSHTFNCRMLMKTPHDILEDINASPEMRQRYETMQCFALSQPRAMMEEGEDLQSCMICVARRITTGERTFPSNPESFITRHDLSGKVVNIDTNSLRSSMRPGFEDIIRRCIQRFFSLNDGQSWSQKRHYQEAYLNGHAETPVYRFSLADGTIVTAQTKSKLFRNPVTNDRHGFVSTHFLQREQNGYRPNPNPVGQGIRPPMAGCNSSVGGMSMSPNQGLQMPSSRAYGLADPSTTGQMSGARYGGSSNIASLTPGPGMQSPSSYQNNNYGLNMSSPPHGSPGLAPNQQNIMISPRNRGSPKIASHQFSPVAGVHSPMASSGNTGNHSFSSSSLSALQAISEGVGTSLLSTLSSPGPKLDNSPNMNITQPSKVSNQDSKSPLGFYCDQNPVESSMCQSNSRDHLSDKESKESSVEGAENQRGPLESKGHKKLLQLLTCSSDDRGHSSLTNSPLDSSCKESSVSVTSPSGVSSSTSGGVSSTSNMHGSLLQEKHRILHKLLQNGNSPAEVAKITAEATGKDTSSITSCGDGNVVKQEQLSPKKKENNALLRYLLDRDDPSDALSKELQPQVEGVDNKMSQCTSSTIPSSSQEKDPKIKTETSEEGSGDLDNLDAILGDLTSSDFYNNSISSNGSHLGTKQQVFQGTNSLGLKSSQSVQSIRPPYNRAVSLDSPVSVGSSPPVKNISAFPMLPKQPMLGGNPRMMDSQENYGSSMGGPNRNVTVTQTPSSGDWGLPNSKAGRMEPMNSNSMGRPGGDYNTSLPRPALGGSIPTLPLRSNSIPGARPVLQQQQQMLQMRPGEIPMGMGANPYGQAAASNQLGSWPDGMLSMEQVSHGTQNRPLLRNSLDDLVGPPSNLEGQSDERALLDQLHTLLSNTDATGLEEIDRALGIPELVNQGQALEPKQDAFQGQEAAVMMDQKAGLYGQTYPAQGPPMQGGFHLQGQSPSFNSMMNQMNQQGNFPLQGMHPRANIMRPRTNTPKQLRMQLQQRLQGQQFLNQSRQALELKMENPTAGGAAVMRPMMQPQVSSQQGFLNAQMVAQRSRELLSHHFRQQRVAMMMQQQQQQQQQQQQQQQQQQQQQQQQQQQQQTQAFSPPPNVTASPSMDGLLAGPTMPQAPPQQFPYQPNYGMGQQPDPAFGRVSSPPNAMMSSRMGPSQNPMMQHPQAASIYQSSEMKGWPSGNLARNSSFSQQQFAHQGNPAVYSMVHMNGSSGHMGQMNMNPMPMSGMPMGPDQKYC

[2] = target: T2, Peroxisome proliferator-activated receptor gamma/Nuclear receptor coactivator 1 (Homo sapiens, UniProt P37231); experiment: as §1, with “1 (SRC-1)” for “3 (SRC-3)”, “assays (depositor defined):AID1300, AID1808, AID504735, AID631]” for “assays: 1301 (Confirmation screen.), 1048 (Primary screen.)]”; type: protein assay
[3] = target: T3, Peroxisome proliferator-activated receptor gamma/Nuclear receptor coactivator 2 (Homo sapiens, UniProt P37231); experiment: TR-FRET dose response biochemical High Throughput Screening assay for agonists of the steroid receptor coactivator 2 (SRC-2) recruitment by the peroxisome proliferator-activated receptor gamma (PPAR gamma): non-selective agonists. [Related pubchem assays: 1297, 1032 ]; type: functional
T3 sequence (P37231 whole entry): as the sequence (P37231 whole entry) above
T3 sequence (Q15596 whole entry, further chain): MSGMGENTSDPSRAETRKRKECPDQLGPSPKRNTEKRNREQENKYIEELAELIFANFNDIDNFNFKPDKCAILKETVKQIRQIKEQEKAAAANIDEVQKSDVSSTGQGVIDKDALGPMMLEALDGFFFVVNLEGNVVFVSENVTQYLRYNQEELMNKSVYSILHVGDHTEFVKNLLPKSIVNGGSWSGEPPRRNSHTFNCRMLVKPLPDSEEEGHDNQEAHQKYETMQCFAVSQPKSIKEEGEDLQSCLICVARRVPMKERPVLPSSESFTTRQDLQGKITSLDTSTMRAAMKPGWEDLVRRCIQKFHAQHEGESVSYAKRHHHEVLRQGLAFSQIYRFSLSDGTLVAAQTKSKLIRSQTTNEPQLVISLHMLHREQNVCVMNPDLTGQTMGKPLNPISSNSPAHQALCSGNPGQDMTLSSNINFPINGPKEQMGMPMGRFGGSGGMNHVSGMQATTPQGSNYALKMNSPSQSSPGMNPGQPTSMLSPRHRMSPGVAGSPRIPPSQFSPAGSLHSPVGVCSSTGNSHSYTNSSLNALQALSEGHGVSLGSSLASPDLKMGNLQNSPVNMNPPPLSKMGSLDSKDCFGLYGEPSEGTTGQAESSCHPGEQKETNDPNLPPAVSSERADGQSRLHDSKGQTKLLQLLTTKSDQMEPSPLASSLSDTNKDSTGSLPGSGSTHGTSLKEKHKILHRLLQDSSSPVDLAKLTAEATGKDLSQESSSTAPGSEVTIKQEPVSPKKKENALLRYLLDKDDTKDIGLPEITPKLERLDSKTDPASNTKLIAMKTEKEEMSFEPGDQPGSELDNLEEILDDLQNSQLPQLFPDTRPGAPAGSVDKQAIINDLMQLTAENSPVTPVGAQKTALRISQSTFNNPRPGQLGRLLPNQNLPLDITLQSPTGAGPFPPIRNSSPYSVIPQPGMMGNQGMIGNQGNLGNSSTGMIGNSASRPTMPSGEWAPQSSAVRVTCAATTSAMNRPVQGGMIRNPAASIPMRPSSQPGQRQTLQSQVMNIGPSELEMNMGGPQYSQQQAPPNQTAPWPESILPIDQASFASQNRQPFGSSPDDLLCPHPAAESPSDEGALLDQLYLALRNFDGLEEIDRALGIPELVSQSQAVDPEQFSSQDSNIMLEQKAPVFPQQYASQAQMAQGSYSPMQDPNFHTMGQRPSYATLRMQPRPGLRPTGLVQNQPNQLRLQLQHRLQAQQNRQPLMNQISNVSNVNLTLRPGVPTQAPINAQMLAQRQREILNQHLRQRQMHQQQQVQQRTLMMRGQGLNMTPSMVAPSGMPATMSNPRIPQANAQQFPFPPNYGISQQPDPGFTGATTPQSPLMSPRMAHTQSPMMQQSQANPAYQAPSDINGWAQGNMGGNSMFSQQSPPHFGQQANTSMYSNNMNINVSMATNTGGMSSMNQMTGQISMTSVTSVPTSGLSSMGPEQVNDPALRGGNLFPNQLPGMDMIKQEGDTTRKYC

[4] = target: T4, High affinity choline transporter 1 (Homo sapiens, UniProt Q9GZV3); experiment: CHT inhibitors, dose response, cell-based, 5-point CRC, membrane potential dye (AID 504840); type: functional
T4 sequence (Q9GZV3 whole entry): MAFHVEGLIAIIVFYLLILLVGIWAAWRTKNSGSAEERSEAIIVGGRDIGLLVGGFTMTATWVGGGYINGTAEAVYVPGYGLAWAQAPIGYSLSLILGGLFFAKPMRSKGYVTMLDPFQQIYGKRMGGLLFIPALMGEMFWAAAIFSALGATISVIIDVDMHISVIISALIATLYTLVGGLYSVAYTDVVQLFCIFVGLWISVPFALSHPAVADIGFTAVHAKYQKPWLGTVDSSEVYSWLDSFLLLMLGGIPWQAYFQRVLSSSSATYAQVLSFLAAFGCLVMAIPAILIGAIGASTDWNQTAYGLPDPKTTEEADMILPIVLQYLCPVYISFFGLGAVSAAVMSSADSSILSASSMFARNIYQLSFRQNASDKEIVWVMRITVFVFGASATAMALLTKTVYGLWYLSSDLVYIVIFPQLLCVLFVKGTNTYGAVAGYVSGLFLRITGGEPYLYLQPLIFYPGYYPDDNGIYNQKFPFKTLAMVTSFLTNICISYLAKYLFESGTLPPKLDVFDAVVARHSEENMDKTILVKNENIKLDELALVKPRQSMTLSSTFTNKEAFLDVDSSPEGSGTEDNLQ

[5] = target: T4, High affinity choline transporter 1; experiment: CHT inhibitors, dose response, cell-based, 10-point CRC, membrane potential dye (AID 588401); type: functional;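 further: membrane potential dye fluorescence of choline-evoked depolarization via CHT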
[6] = target: T5, Ubiquitin-conjugating enzyme E2 N (Homo sapiens, UniProt P61088); type: functional
T5 sequence (P61088 whole entry): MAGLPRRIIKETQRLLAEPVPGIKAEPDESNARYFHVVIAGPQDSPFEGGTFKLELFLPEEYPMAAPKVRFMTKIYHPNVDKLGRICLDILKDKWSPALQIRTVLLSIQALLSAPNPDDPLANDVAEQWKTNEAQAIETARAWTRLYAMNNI

Prothrombin = Prothrombin (Bos taurus, UniProt P00735); experiment: thrombin inhibition, dose response, biochemical, fluorescence polarization, uHTS hits (AID 602369); type: functional
[7] = target: T6, Apoptotic protease-activating factor 1 (Homo sapiens, UniProt O14727); type: functional
T6 sequence (O14727 whole entry): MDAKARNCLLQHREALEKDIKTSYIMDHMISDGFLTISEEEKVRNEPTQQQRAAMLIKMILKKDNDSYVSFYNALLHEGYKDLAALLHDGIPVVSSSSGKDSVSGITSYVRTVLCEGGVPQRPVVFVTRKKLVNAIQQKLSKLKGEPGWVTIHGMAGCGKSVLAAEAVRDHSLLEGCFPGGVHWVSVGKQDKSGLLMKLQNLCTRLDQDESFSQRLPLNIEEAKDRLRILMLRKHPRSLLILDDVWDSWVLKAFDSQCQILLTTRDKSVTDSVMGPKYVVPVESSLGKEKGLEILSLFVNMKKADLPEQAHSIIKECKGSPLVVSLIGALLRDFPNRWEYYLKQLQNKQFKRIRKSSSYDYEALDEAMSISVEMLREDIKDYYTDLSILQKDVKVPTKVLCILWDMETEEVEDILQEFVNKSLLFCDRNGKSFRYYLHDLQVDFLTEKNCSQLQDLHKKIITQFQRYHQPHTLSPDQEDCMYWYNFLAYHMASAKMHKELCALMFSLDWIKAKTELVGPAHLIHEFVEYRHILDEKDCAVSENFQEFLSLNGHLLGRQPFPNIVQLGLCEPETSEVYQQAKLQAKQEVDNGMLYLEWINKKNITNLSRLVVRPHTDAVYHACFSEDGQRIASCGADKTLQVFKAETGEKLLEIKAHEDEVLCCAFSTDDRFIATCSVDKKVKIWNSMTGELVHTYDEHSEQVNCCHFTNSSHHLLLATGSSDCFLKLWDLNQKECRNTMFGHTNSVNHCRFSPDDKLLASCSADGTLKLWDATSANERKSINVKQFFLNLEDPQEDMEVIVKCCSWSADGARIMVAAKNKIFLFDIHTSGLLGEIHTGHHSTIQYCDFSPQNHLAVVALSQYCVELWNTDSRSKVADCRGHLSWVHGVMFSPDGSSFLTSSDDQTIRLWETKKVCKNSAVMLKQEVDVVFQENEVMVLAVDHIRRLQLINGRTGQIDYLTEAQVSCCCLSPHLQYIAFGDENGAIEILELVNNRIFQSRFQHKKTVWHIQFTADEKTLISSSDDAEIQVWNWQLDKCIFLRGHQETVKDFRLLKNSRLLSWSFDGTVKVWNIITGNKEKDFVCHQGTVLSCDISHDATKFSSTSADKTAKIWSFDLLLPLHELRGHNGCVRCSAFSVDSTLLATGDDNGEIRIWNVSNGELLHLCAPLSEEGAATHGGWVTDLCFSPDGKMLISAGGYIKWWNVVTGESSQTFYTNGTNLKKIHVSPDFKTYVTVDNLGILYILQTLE

Bcl-2-related protein A1 = target: T7, Bcl-2-related protein A1 (Mus musculus, UniProt Q07440); type: functional;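 further: confirmatory dose–response counterscreen on Bfl-1, used to check hits from a UBC13 polyubiquitin inhibitor campaign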
T7 sequence (Q07440 whole entry): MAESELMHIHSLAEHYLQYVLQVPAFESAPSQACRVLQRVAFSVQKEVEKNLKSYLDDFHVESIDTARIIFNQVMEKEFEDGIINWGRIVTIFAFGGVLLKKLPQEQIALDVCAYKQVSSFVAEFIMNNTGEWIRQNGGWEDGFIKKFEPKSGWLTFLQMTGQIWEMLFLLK

[8] = target: T5, Ubiquitin-conjugating enzyme E2 N; type: functional; remark: listed apart in the source
[9] = target: 26S proteasome non-ATPase regulatory subunit 14 (Homo sapiens, UniProt O00487); experiment: inhibition of proteasome subunit RPN11 – biochemical, fluorescence polarization, uHTS hits, confirmation (AID 602368); type: functional
26S proteasome non-ATPase regulatory subunit 14, sequence (O00487 whole entry): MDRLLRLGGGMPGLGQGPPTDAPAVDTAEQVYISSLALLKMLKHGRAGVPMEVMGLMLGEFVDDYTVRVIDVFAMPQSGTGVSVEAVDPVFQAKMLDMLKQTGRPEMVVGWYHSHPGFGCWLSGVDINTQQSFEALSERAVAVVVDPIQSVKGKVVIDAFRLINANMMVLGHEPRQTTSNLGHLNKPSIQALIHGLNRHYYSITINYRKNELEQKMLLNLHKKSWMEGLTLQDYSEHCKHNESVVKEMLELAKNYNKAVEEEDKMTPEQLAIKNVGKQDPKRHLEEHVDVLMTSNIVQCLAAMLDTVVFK

[10] = target: 72 kDa type IV collagenase (Homo sapiens, UniProt P08253); experiment: Dose Response validation of uHTS RPN11 inhibitor hits using a MMP-2 Fluorescence assay.; type: functional
72 kDa type IV collagenase, sequence (P08253 whole entry): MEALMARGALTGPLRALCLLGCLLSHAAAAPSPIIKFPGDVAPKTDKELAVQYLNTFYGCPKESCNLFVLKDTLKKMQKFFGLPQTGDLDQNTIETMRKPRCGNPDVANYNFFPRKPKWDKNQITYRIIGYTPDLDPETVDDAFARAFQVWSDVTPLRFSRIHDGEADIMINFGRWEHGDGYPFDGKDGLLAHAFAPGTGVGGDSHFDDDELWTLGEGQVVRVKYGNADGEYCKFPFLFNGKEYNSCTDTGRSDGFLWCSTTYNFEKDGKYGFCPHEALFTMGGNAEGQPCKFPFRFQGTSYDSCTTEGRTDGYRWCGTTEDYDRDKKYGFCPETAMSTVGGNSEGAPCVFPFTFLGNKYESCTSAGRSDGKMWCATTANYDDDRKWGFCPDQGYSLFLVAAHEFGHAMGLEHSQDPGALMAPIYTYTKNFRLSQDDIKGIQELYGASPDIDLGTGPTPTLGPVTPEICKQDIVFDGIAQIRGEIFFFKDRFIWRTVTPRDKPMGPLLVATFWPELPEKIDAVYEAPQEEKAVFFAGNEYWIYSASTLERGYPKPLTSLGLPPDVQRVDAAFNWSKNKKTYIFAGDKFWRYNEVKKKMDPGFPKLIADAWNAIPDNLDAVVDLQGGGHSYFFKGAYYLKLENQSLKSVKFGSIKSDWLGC

[11] = tested on: Streptococcus sp. 'group A'; experiment: growth inhibition of control SK(-) GAS strain, dose response, counter-screen for streptokinase expression inhibitor project, luminescence, kanamycin, BacTiterGlo, confirmation (AID 1900); type: functional, organism-based
Streptococcus = experiment: Group A Streptococcus viability loss, dose response, counter-screen for streptokinase expression inhibitor project, luminescence, BacTiterGlo (AID 1915); type: functional, organism-based;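 further: potency for reduction of bacterial viability or growth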
Estrogen receptor beta = Estrogen receptor beta (Homo sapiens, UniProt Q92731);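 further: recombinant ER-beta bound to coactivator SRC1 peptide in presence of estradiol agonist; inhibitors block coactivator peptide binding and lower the FRET signal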
H9c2 = experiment: cells; type: functional, cell-based; conditions: Rattus norvegicus, H9c2, Myocardium;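 further: confirmatory concentration-response retest of ultra-high-throughput screening hits for modulation of myocardial damage; cell death induced by hydrogen peroxide oxidative stress; compound pretreatment for 60 min then peroxide exposure for 2 h; potency is for protecting the cells against peroxide damage rather than for killing them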
[12] = target: T2, Peroxisome proliferator-activated receptor gamma/Nuclear receptor coactivator 1; type: functional
[13] = target: T1, Peroxisome proliferator-activated receptor gamma/Nuclear receptor coactivator 3; type: functional
[14] = target: T3, Peroxisome proliferator-activated receptor gamma/Nuclear receptor coactivator 2; type: functional
[15] = target: Heat shock protein HSP 90-alpha (Homo sapiens, UniProt P07900); type: functional, organism-based
[16] = target: T8, Long-chain-fatty-acid--AMP ligase FadD28 (Mycobacterium tuberculosis, UniProt P9WQ59); experiment: Fluorescence polarization aasay to screen for inhibitors that compete for the binding of FadD28 to a bisubstrate Measured in Biochemical System Using Plate Reader - 2147-01_Inhibitor_Dose_CherryPick_Activity.; type: functional, Mycobacterium tuberculosis H37Rv
T8 sequence (P9WQ59 whole entry): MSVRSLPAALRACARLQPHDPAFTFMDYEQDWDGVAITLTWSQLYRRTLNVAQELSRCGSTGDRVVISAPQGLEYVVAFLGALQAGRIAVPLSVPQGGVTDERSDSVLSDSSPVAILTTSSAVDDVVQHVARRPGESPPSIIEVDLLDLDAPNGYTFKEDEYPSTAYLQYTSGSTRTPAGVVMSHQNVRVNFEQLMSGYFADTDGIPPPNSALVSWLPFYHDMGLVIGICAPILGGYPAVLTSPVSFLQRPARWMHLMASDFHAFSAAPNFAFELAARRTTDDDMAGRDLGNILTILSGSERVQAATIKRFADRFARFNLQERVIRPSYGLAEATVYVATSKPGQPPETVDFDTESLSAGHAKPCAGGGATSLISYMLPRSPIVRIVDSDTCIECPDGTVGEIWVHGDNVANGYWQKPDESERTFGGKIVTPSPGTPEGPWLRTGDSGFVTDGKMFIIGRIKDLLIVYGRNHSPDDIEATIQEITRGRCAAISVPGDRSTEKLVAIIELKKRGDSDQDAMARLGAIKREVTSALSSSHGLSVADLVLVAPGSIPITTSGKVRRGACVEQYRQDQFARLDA

[17] = HeLa cell cytotoxicity, dose response, cytotoxicity control for MgcRacGAP inhibitor project (AID 624300); type: functional
[18] = target: T9, Rac GTPase-activating protein 1 (Homo sapiens, UniProt Q9H0H5); experiment: MgcRacGAP GTPase-activating activity inhibitors, confirmation, biochemical, ADP Hunter fluorescence, primary and confirmatory (AID 624330); type: functional
T9 sequence (Q9H0H5 whole entry): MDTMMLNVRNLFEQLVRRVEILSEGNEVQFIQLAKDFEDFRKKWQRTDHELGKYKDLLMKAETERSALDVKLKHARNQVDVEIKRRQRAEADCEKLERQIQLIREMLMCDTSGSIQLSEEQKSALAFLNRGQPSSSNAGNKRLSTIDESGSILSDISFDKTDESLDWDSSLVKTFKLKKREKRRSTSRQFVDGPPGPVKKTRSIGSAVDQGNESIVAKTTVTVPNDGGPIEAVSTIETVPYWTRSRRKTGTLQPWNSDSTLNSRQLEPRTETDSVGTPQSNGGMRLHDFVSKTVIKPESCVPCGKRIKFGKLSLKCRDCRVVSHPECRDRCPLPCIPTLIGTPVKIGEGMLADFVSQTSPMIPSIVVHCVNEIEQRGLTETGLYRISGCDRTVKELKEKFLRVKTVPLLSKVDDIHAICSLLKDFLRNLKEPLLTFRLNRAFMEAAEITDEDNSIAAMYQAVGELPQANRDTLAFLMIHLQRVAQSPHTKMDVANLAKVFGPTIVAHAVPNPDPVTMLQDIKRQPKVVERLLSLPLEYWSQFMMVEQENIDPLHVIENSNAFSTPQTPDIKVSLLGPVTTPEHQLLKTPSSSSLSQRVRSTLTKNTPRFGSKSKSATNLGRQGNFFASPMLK

[19] = Luminescence Cell-Based Dose Retest to Confirm Inhibitors of Cancer Stem Cells. [Related pubchem assays (depositor defined):AID2717, AID2721]; type: functional; conditions: Homo sapiens

COc1ccc(C(=O)NC2(C(F)(F)F)C(=O)Nc3c2c(=O)[nH]c(=O)n3CCc2ccc(OC)c(OC)c2)cc1 (stereo not drawn)
AC50 (Escherichia coli): 25.4 µM (active)

O=C(O)COc1ccc2c(c1Cl)N=S=N2
EC50 [1]: 59 µM (not active) | EC50 [2]: 9.32 µM (active) | EC50 [3]: 12.5 µM (not active)

Cc1ccc(C[S+]([O-])Cc2ccc(C(=O)NC3CCCC(C)C3C)o2)cc1 (stereo not drawn)
IC50 [4]: 9.8 µM (active) | IC50 [5]: 7.23 µM (active)

COc1ccc(NS(=O)(=O)c2ccc(C)c(NC(=O)CN3C(=O)NC4(CCCC4)C3=O)c2)cc1
IC50 [6]: > 20 µM (inactive) | IC50 (Prothrombin): 79.2 µM (active) | IC50 [7]: 23.2 µM (active) | IC50 (Bcl-2-related protein A1): > 20 µM (inactive) | IC50 [8]: 16.3 µM (active) | IC50 [9]: 3.31 µM (active) | IC50 [10]: > 100 µM (inactive)

CCn1cc(C(=O)O)c(=O)c2cc(F)c(N3CCN(C(S)=Nc4ccc(OC)cc4)CC3)cc21
EC50 [11]: 2.27 µM (active) | EC50 (Streptococcus): 7.71 µM (active) | AC50 (Escherichia coli): 2.52 µM (active)

CCN(CC)CCCn1c2c(c(SCC(=O)Nc3ccc(OC(F)(F)F)cc3)nc1=O)CCC2
IC50 [4]: 7.92 µM (active) | IC50 [5]: 6.21 µM (active)

COCC(=O)Nc1nnc(Cc2ccc(OC)cc2)s1
IC50 (Estrogen receptor beta): > 50 µM (not active) | AC50 (Escherichia coli): 111 µM (active)

Cn1c(=O)cc(SCC(=O)Nc2ccc3c(c2)OCO3)c2ccccc21
EC50 [1]: > 79.4 µM (not active) | EC50 [2]: > 79.4 µM (inactive) | EC50 [3]: > 79.4 µM (not active)

NS(=O)(=O)c1ccc(Nc2ccc([N+](=O)[O-])c3nonc23)cc1
IC50 (Prothrombin): 36.1 µM (active) | IC50 [9]: 39.7 µM (active) | IC50 [10]: > 100 µM (inactive)

Oc1c(Br)cc(Br)cc1/C=N/Cc1ccc(F)cc1
IC50 (H9c2): > 79 µM (inactive) | IC50 [4]: 9.21 µM (active) | EC50 [12]: > 79.4 µM (not active) | EC50 [13]: > 79.4 µM (not active) | EC50 [14]: 38.3 µM (not active) | IC50 [5]: 3.64 µM (active) | AC50 [15]: 6.15 µM (active)

Cc1nc(N)sc1C(=O)N/N=C/c1c[nH]c2ccccc12
IC50 [6]: 1.25 µM (active) | AC50 [16]: 55.1 µM (active) | IC50 (Bcl-2-related protein A1): > 20 µM (inactive) | IC50 [8]: 1.33 µM (active)

O=C(c1ccc(OCCN2CCCCC2)cc1)c1c(-c2ccc(O)cc2)sc2cc(O)ccc12 [RALOXIFENE HYDROCHLORIDE]
IC50 [6]: 17.5 µM (active) | CC50 [17]: 99.6 µM (active) | IC50 (Bcl-2-related protein A1): > 20 µM (inactive) | IC50 [18]: 27.8 µM (active) | IC50 [8]: 14.2 µM (active) | AC50 [19]: 1.75 µM (active)
